Calls of active or inactive are those of the source. The rule behind the calls is not given here.
Columns and labels:
Echinococcus granulosus [1] = assay: Parasiticidal activity against Echinococcus granulosus protoscolices assessed as survival rate at 1 uM incubated for 48 hrs by eosin exclusion test; type: functional
Echinococcus granulosus [2] = assay: Parasiticidal activity against Echinococcus granulosus protoscolices […] by eosin exclusion test; type: functional; details: 1152 h, time 48 day
Echinococcus granulosus [3] = assay: Parasiticidal activity against Echinococcus granulosus protoscolices assessed as body shrank with irregular edge at 5 uM incubated for 4 days by H and E staining based assay; type: functional, organism-based; details: time 4.0 day
Echinococcus granulosus [4] = assay: Parasiticidal activity against Echinococcus granulosus protoscolices assessed as appearance of partial shedding at 5 uM incubated for 4 days by H and E staining based assay; type: functional, organism-based; details: time 4.0 day
Echinococcus granulosus [5] = assay: Parasiticidal activity against Echinococcus granulosus protoscolices assessed as appearance of relative completion of sucker at 5 uM incubated for 2 days by scanning electron microscopy; type: functional, organism-based; details: time 2.0 day
Echinococcus granulosus [6] = assay: Parasiticidal activity against Echinococcus granulosus protoscolices assessed as outer skin and hooks fall off at 5 uM incubated for 2 days by scanning electron microscopy; type: functional, organism-based; details: time 2.0 day
Echinococcus granulosus [7] = assay: Parasiticidal activity against Echinococcus granulosus assessed as cyst destruction at 100 uM incubated for 4 days by scanning electron microscopy; type: functional, organism-based; details: time 4.0 day
Echinococcus granulosus [8] = assay: Parasiticidal activity against Echinococcus granulosus microcyst infected in kunming mouse assessed as mean cyst weight at 50 mg/kg, ip administered for 14 days; type: functional; details: time 14 day
Echinococcus granulosus [9] = assay: Parasiticidal activity against Echinococcus granulosus microcyst infected in kunming mouse assessed as mean cyst weight at 50 mg/kg, ip administered for 28 days; type: functional; details: time 28 day
Echinococcus granulosus [10] = assay: Parasiticidal activity against Echinococcus granulosus microcyst infected in kunming mouse assessed as mean cyst weight at 25 mg/kg, ip administered for 14 days; type: functional; details: time 14 day
Echinococcus granulosus [11] = assay: Parasiticidal activity against Echinococcus granulosus microcyst infected in kunming mouse assessed as mean cyst weight at 25 mg/kg, ip administered for 28 days; type: functional; details: time 28 day
Echinococcus granulosus [12] = assay: Parasiticidal activity against Echinococcus granulosus microcyst infected in kunming mouse assessed as mean cyst weight at 12.5 mg/kg, ip administered for 14 days; type: functional; details: time 14 day
Echinococcus granulosus [13] = assay: Parasiticidal activity against Echinococcus granulosus microcyst infected in kunming mouse assessed as mean cyst weight at 12.5 mg/kg, ip administered for 28 days; type: functional; details: time 28 day
Echinococcus granulosus [14] = assay: Parasiticidal activity against Echinococcus granulosus microcyst infected in kunming mouse assessed as reduction in cyst weight at 50 mg/kg, ip administered for 14 days relative to control; type: functional; parameters: scale not given: the % may be the effect or the level left; details: time 14 day
Echinococcus granulosus [15] = assay: Parasiticidal activity against Echinococcus granulosus microcyst infected in kunming mouse assessed as reduction in cyst weight at 50 mg/kg, ip administered for 28 days relative to control; type: functional; parameters: scale not given: the % may be the effect or the level left; details: time 28 day
Echinococcus granulosus [16] = assay: Parasiticidal activity against Echinococcus granulosus microcyst infected in kunming mouse assessed as reduction in cyst weight at 25 mg/kg, ip administered for 14 days relative to control; type: functional; parameters: scale not given: the % may be the effect or the level left; details: time 14 day
Echinococcus granulosus [17] = assay: Parasiticidal activity against Echinococcus granulosus microcyst infected in kunming mouse assessed as reduction in cyst weight at 25 mg/kg, ip administered for 28 days relative to control; type: functional; parameters: scale not given: the % may be the effect or the level left; details: time 28 day
Echinococcus granulosus [18] = assay: Parasiticidal activity against Echinococcus granulosus microcyst infected in kunming mouse assessed as reduction in cyst weight at 12.5 mg/kg, ip administered for 14 days relative to control; type: functional; parameters: scale not given: the % may be the effect or the level left; details: time 14 day
Echinococcus granulosus [19] = assay: Parasiticidal activity against Echinococcus granulosus microcyst infected in kunming mouse assessed as reduction in cyst weight at 12.5 mg/kg, ip administered for 28 days relative to control; type: functional; parameters: scale not given: the % may be the effect or the level left; details: time 28 day
Echinococcus granulosus [20] = assay: Parasiticidal activity against intraperitoneal cystic Echinococcus granulosus infected in Kunming mouse assessed as decrease number of microvilli at 50 mg/kg, ip administered for 28 days by TEM analysis; type: functional, organism-based; details: time 28.0 day
Echinococcus granulosus [21] = assay: Parasiticidal activity against intraperitoneal cystic Echinococcus granulosus infected in Kunming mouse assessed as appearance of unclear cortex at 50 mg/kg, ip administered for 28 days by TEM analysis; type: functional, organism-based; details: time 28.0 day
Echinococcus granulosus [22] = assay: Parasiticidal activity against intraperitoneal cystic Echinococcus granulosus infected in Kunming mouse assessed as reduction in cell count with clear nucleolus at 50 mg/kg, ip administered for 28 days by TEM analysis; type: functional, organism-based; details: time 28.0 day
[23] = Neurotoxicity in Kunming mouse assessed as loosely arranged pyramidal cells in brain at 50 mg/kg, ip administered for 28 days by H and E staining based assay; type: toxicity, organism-based; details: in vivo, 672 h, time 28 day
[24] = Neurotoxicity in Kunming mouse assessed as swollen pyramidal cells in brain at 50 mg/kg, ip administered for 28 days by H and E staining based assay; type: toxicity, organism-based; details: in vivo, 672 h, time 28 day
[25] = Neurotoxicity in Kunming mouse assessed as deformed pyramidal cells in brain at 50 mg/kg, ip administered for 28 days by H and E staining based assay; type: toxicity, organism-based; details: in vivo, 672 h, time 28 day
[26] = Neurotoxicity in Kunming mouse assessed as widened perinuclear space in hippocampal neurons at 50 mg/kg, ip administered for 28 days by TEM analysis; type: toxicity, organism-based; details: in vivo, 672 h, time 28 day
[27] = Neurotoxicity in Kunming mouse assessed as incomplete mitochondrial membrane in hippocampal at 50 mg/kg, ip administered for 28 days by TEM analysis; type: toxicity, organism-based; details: in vivo, 672 h, time 28 day
[28] = Neurotoxicity in Kunming mouse assessed as partial cristae in hippocampal at 50 mg/kg, ip administered for 28 days by TEM analysis; type: toxicity, organism-based; details: in vivo, 672 h, time 28 day
[29] = Neurotoxicity in Kunming mouse assessed as blurred synaptic space in hippocampal at 50 mg/kg, ip administered for 28 days by TEM analysis; type: toxicity, organism-based; details: in vivo, 672 h, time 28 day
[30] = Neurotoxicity in Kunming mouse assessed as increased postsynaptic density in hippocampal at 50 mg/kg, ip administered for 28 days by TEM analysis; type: toxicity, organism-based; details: in vivo, 672 h, time 28 day
Echinococcus granulosus [31] = assay: Induction of autophagy in Echinococcus granulosus protoscolices assessed as decrease in p62 expression level at 5 uM measured after 4 days by Western blot analysis; type: functional, organism-based; details: time 4.0 day
Echinococcus granulosus [32] = assay: Induction of autophagy in Echinococcus granulosus protoscolices assessed as increase in ATG5 expression level at 5 uM measured after 4 days by Western blot analysis; type: functional, organism-based; details: time 4.0 day
Echinococcus granulosus [33] = assay: Induction of autophagy in Echinococcus granulosus protoscolices assessed as increase in Beclin1 expression level at 5 uM measured after 4 days by Western blot analysis; type: functional, organism-based; details: time 4.0 day

COc1ccc2c(c1)[nH]c1c(C)nccc12 [HARMINE]
Activity (Echinococcus granulosus [1]): 100%
LC50 (Echinococcus granulosus [2]): 135 µM
Activity (Echinococcus granulosus [3]): Active
Activity (Echinococcus granulosus [4]): Active
Activity (Echinococcus granulosus [5]): Active
Activity (Echinococcus granulosus [6]): Active
Activity (Echinococcus granulosus [7]): inactive
Activity (Echinococcus granulosus [8]): 22.7 mg
Activity (Echinococcus granulosus [9]): 23.4 mg
Activity (Echinococcus granulosus [10]): 25.1 mg
Activity (Echinococcus granulosus [11]): 24.8 mg
Activity (Echinococcus granulosus [12]): 27.8 mg
Activity (Echinococcus granulosus [13]): 26.6 mg
Activity (Echinococcus granulosus [14]): 55.97%
Activity (Echinococcus granulosus [15]): 56.93%
Activity (Echinococcus granulosus [16]): 51.2%
Activity (Echinococcus granulosus [17]): 54.4%
Activity (Echinococcus granulosus [18]): 46.13%
Activity (Echinococcus granulosus [19]): 67.17%
Activity (Echinococcus granulosus [20]): Active
Activity (Echinococcus granulosus [21]): Active
Activity (Echinococcus granulosus [22]): Active
Activity [23]: Toxic
Activity [24]: Toxic
Activity [25]: Toxic
Activity [26]: Toxic
Activity [27]: Toxic
Activity [28]: Toxic
Activity [29]: Toxic
Activity [30]: Toxic
Activity (Echinococcus granulosus [31]): Active
Activity (Echinococcus granulosus [32]): Active
Activity (Echinococcus granulosus [33]): Active
